Results: publication PMC3894639 (Pharmacogenetics and genomics, 2013)
Substitutions are numbered along the chain they refer to. Structures can show the parent of a compound that is named as a salt. Where two headings read alike, the source gives them in different places.

Assays:
OATP1B1 [1] = biological target: T1, OATP1B1 (Homo sapiens, UniProt Q9Y6L6)
T1 sequence (Q9Y6L6 1-691): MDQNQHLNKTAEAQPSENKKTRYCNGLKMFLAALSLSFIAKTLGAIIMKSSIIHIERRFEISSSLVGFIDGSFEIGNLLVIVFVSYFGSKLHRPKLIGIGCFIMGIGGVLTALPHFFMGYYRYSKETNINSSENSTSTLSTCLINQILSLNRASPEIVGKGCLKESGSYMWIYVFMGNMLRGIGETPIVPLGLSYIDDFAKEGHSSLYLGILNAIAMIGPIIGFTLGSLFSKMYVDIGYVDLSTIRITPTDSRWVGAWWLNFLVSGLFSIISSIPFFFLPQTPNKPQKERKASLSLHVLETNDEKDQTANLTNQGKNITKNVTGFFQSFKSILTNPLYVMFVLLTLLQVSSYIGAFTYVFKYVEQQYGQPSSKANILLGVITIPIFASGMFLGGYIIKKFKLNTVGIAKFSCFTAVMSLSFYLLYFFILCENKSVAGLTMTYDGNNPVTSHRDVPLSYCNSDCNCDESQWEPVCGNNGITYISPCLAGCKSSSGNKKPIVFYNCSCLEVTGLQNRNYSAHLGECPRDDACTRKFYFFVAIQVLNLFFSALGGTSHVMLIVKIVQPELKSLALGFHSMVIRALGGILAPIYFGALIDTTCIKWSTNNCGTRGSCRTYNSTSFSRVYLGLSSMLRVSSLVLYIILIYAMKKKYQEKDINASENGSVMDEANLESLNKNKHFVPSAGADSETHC

[2] = cited from earlier work
[3] = protein unbound fraction; ref literature; cited from earlier work
OATP1B1 [4] = biological target: T1, OATP1B1; remark: listed apart in the source
OATP1B1 [5] = biological target: T1, OATP1B1; experiment: Prediction of clinical drug-drug interactions; settings: for R (CER): cerivastatin as substrate; for Iin,max: Fa 1, Ka 0.1/min, Qh 1500 ml/min
[6] = test system: cerivastatin-induced rhabdomyolysis; settings: cited from earlier work
OATP1B1 T345M = biological target: T2, OATP1B1 T345M (Homo sapiens, UniProt Q9Y6L6, T345M); settings: 20 nmol/l [3H]-ES
T2 sequence (Q9Y6L6 1-691 T345M): T1 sequence (Q9Y6L6 1-691) with T345M

[7] = test system: HEK293/FRT cells, empty vector; experiment: Uptake by HEK293/FRT cells with empty vector; type: cell-based, human
OATP1B1 reference = biological target: T3, OATP1B1 reference (Homo sapiens, UniProt Q9Y6L6); settings: 20 nmol/l [3H]-ES, 5 min, 37°C
T3 sequence (Q9Y6L6 1-691): T1 sequence (Q9Y6L6 1-691)

OATP1B1*15 = biological target: T4, OATP1B1*15 (Homo sapiens, UniProt Q9Y6L6, N130D/V174A); settings: 20 nmol/l [3H]-ES
T4 sequence (Q9Y6L6 1-691 N130D/V174A): T1 sequence (Q9Y6L6 1-691) with N130D, V174A

SLCO1B1 521T>C = SLCO1B1 521T>C polymorphism; cited from earlier work
OATP1B1 FS (974insGT) = settings: 5 nmol/l [3H]-CER; frameshift insertion
[8] = 5 nmol/l [3H]-CER, concentrations up to 100 µmol/l
[9] = 20 nmol/l [3H]-ES, concentrations up to 100 µmol/l
[10] = concentrations up to 3 µmol/l, limited by solubility
[11] = at the oral dose listed per drug in Table 3 (clopidogrel 75 mg)
[12] = R=1+fu×Iin,max/IC50, ES as substrate, oral dose listed per drug in Table 3

Row | SMILES | IC50 (OATP1B1 [1]) [µM] | Inhibition of OATP1B1-mediated uptake of cerivastatin (in words) (OATP1B1 [1]; [8]) | IC50 (OATP1B1 [4]) [µM] | Inhibition of OATP1B1-mediated uptake of ES (in words) (OATP1B1 [4]; [9]) | also measured
1 | COC(=O)[C@H](c1ccccc1Cl)N1CCC2SC(=O)C=C2C1 (some centres unmarked) [2-Oxo clopidogrel, 2-oxo clopidogrel] | 8.18 | inhibited | 8.97 | inhibited | Cmax ([2]; clopidogrel oral dose 600 mg): 0.05 ng/mL; fu [3]: 0.02; R (ES) (OATP1B1 [5]; ES as substrate, clopidogrel oral dose 600 mg): 1.26; R (CER) (OATP1B1 [5]; clopidogrel oral dose 600 mg): 1.29; Iin,max (OATP1B1 [5]; clopidogrel oral dose 600 mg): 118.69 µmol/L
2 | CCOC(=O)C1=C(COCCN)NC(C)=C(C(=O)OC)C1c1ccccc1Cl (centres unmarked) [Amlodipine, amlodipine] | 35.5 | – | 39.6 | – | –
3 | Cc1ccc(-c2cc(C(F)(F)F)nn2-c2ccc(S(N)(=O)=O)cc2)cc1 [Celecoxib, celecoxib] | – | did not inhibit | – | did not inhibit | –
4 | O=C(O)[C@H]1O[C@@H](OC(=O)[C@H](c2ccccc2Cl)N2CCc3sccc3C2)[C@H](O)[C@@H](O)[C@@H]1O [Clopidogrel acyl glucuronide, clopidogrel acyl glucuronide] | – | inhibited | – | inhibited | –
5 | COC(=O)[C@H](c1ccccc1Cl)N1CCc2sccc2C1 [Clopidogrel, Clopidogrel hydrogen sulfate] | 3.95 | inhibited | – | inhibited | inhibition at 5 min, 100 µmol/l (OATP1B1 [1]; human, probe [3H]-cerivastatin, 5 nmol/l): 52.7%; Odds ratio for cerivastatin-induced rhabdomyolysis ([6]; clopidogrel use in the absence of gemfibrozil use, 95% CI 12.5-182): 47.8; Odds ratio for cerivastatin-induced rhabdomyolysis ([6]; clopidogrel use in the presence of gemfibrozil use, 95% CI 6.1-143): 29.6; Cmax ([2]; clopidogrel oral dose 600 mg): 31.4 ng/mL; IC50 at 5 min (OATP1B1 [4]; human, probe [3H]-estrone-3-sulfate, 20 nmol/l): > 100 µM; R (CER) (OATP1B1 [5]; clopidogrel oral dose 600 mg): 1.63; Iin,max (OATP1B1 [5]; clopidogrel oral dose 600 mg): 124.40 µmol/L
6 | C[C@]12CC[C@@H]3c4ccc(OS(=O)(=O)O)cc4CC[C@H]3[C@@H]1CCC2=O [ES, [^3H]-Estrone-3-sulfate ammonium salt] | – | – | – | – | ES uptake, fraction of reference (OATP1B1 T345M): 0.43±0.07 of reference; ES transport rate ([7]; 20 nmol/l [3H]-ES): 0.01±0.006 pmol/mg of protein/min; ES transport rate (OATP1B1 reference): 0.2±0.01 pmol/mg of protein/min; Decrease in ES transport vs reference (OATP1B1*15): 66%
7 | C[C@]1(O)CC[C@H]2[C@@H]3CCC4=CC(=O)CC[C@]4(C)[C@@]3(F)[C@@H](O)C[C@@]21C [Fluoxymesterone] | – | – | – | – | Inhibition of OATP1B1-mediated uptake of cerivastatin (in words) (OATP1B1 [1]; [10]): no inhibitory effects; Inhibition of OATP1B1-mediated uptake of ES (in words) (OATP1B1 [4]; [10]): no inhibitory effects
8 | COc1ccc(Cl)cc1C(=O)NCCc1ccc(S(=O)(=O)NC(=O)NC2CCCCC2)cc1 [Glyburide, glyburide] | – | – | – | – | fu [3]: 0.002
9 | N[C@@H](Cc1cc(I)c(Oc2cc(I)c(O)c(I)c2)c(I)c1)C(=O)O [Levothyroxine, levothyroxine] | 0.88 | inhibited | 2.04 | inhibited | Cmax [2, 11]: 591 ng/mL; fu [3]: 0.01; R (ES) (OATP1B1 [5]; [12]): 1.00
10 | CC(C)(O)c1ccccc1CC[C@@H](SCC1(CC(=O)O)CC1)c1cccc(/C=C/c2ccc3ccc(Cl)cc3n2)c1 [Montelukast, montelukast sodium] | 2.04 | inhibited | 1.4 | inhibited | Cmax ([2]; in vivo, po, 75 mg): 542 ng/mL; R (ES) (OATP1B1 [5]; [12]): 1.01
11 | CCc1ccc(CCOc2ccc(CC3SC(=O)NC3=O)cc2)nc1 (centres unmarked) [Pioglitazone, pioglitazone hydrochloride] | 39.6 | inhibited | 6.8 | inhibited | Cmax ([2]; in vivo, po, 75 mg): 1500 ng/mL; R (ES) (OATP1B1 [5]; [12]): 1.01
12 | CO[C@H]1/C=C/O[C@@]2(C)Oc3c(C)c(O)c4c(O)c(c(/C=N/N5CCN(C)CC5)c(O)c4c3C2=O)NC(=O)/C(C)=C\C=C\[C@H](C)[C@H](O)[C@@H](C)[C@@H](O)[C@@H](C)[C@H](OC(C)=O)[C@@H]1C [Rifampin, rifampin] | 5.65 | – | 0.88 | – | Cmax [2, 11]: 10000 ng/mL; R (ES) (OATP1B1 [5]; [12]): 8.56
13 | CS(=O)(=O)c1ccc(C2=C(c3ccccc3)C(=O)OC2)cc1 [Rofecoxib, rofecoxib] | 1.17 | inhibited | 5.65 | inhibited | Cmax [2, 11]: 320 ng/mL; R (ES) (OATP1B1 [5]; [12]): 1.15
14 | CN(CCOc1ccc(CC2SC(=O)NC2=O)cc1)c1ccccn1 (centres unmarked) [Rosiglitazone, Rosiglitazone-potassium salt] | 43.4 | – | 4.27 | – | Cmax [2, 11]: 598 ng/mL
15 | COCc1c(C(C)C)nc(C(C)C)c(/C=C/[C@@H](O)C[C@@H](O)CC(=O)O)c1-c1ccc(F)cc1 [cerivastatin, [^3H]-Cerivastatin sodium salt] | – | – | – | – | Cerivastatin uptake transport rate ([7]; 5 nmol/l [3H]-CER): 0.02±0.01 pmol/mg of protein/min; Reduction in cerivastatin uptake (SLCO1B1 521T>C): 40%; Cerivastatin uptake, % of reference (OATP1B1 FS (974insGT)): 3.4 % of reference
16 | CCCCC1=NC2(CCCC2)C(=O)N1Cc1ccc(-c2ccccc2-c2nnn[nH]2)cc1 [irbesartan, Irbesartan] | – | did not inhibit | – | did not inhibit | –
17 | Cc1c(OCC(F)(F)F)ccnc1C[S+]([O-])c1nc2ccccc2[nH]1 (centres unmarked) [lansoprazole] | – | did not inhibit | – | did not inhibit | –
